Assay results: patent publication US4764506A, “N^6 -(benzothien-3-yl)ethyl adenosine; N^6 -(benzothien-3-yl)ethyl adenosine, S-oxide; and N^6 -(benzothien-3-yl)ethyl S,S-dioxide adenosine” (Warner-Lambert Company, priority 1986, dated 1988)

Columns and labels:
adenosine A1 receptor = target: T1, adenosine A1 receptor (Rattus norvegicus, UniProt P25099); experiment: Adenosine Receptor Binding--A1 Receptor Affinity (RBA1), [3H]-CHA displacement, rat whole brain membranes; set-up: species or system rat (Long Evans); settings: 1.0 nM [3H]-CHA, pH 7.7, 25° C., read-out: RBA-1
T1 construct: Whole brain minus cerebellum and brainstem from male Long Evans rats; from tissue; host or cells: rat whole brain minus cerebellum and brainstem, membranes (male Long Evans)
T1 sequence (P25099 1-326): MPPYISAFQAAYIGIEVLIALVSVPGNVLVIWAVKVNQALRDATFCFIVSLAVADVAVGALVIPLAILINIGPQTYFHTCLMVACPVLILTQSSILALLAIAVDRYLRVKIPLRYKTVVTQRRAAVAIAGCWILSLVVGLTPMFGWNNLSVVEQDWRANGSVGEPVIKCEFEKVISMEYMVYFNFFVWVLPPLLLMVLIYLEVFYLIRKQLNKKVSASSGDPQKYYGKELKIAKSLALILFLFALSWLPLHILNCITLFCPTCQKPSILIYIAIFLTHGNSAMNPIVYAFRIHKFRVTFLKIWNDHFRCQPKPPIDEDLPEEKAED
Description: Whole brain minus cerebellum and brainstem from male Long Evans rats (150-200 g) was homogenized in 30 volumes of ice-cold 0.05 M Tris-HCl buffer pH 7.7 using a Brinkman Polytron PT-10, (setting number 6 for 20 seconds) and centrifuged for ten minutes at 20,000×g (Sorvall RC-2), 4° C. The supernatant was discarded, and the pellet was resuspended and centrifuged as before. The pellet was resuspended in 20 ml Tris-HCl buffer containing two International Units/ml of adenosine deaminase (Sigma type III from calf intestinal mucosa), incubated at 37° C. for 30 minutes, then subsequently at 0° C. for ten minutes. The homogenate was again centrifuged, and the final pellet was resuspended in ice-cold 0.05 M Tris-HCl buffer pH 7.7 to a concentration of 20 mg/ml original wet tissue weight and used immediately.
Tissue homogenate (10 mg/ml) was incubated in 0.05 M Tris-HCl buffer pH 7.7 containing 1.0 nM [^3 H]-N^6 -cyclohexyladenosine (^3 H]-CHA) with or without test agents in triplicate for one hour at 25° C. Incubation volume was 2 ml. Unbound [^3 H]-CHA was separated by rapid filtration under reduced pressure through Whatman glass fiber (GF/B) filters. The filters were rinsed three times with 5 ml of ice cold 0.05 M Tris-HCl buffer pH 7.7. The radio-labeled ligand retained on the filter was measured by liquid scintillation spectrophotometry after shaking the filters for one hour or longer on a mechanical shaker in 10 ml of Beckman Ready-Solv HP scintillation cocktail.
Nonspecific binding was defined as the binding which occurred in the presence of 1 mM theophylline. The concentration of test agent which inhibited 50% of the specific binding (IC50) was determined by nonlinear computer curve fit. The Scatchard plot was calculated by linear regression of the line obtained by plotting the amount of radioligand bound [formula] Since the amount of radioligand bound was a small fraction of the total amount added, free radioligand was defined as the concentration (nM) of radioligand added to the incubation mixture. The Hill coefficient was calculated by linear regression of the line obtained by plotting the log of the bound radioligand vs the log of the [formula] The maximal number of binding sites (Bmax) was calculated from the Scatchard plot.

adenosine A2 receptor = target: T2, adenosine A2 receptor (Rattus norvegicus, UniProt P30543); experiment: Adenosine Receptor Binding--A2 Receptor Affinity (RBA2), [3H]NECA displacement, rat striatal membranes; set-up: species or system rat (Sprague-Dawley); settings: 4 nM [3H]NECA, 50 nM N6-cyclopentyladenosine, rat striatum, 25° C., read-out: RBA-2
T2 construct: Brains were thawed and then kept on ice while the striata were dissected out; tissue Pel-Freez (Rogers, Ark.); host or cells: rat striatum, membranes (mixed sex Sprague-Dawley)
T2 sequence (P30543 whole entry): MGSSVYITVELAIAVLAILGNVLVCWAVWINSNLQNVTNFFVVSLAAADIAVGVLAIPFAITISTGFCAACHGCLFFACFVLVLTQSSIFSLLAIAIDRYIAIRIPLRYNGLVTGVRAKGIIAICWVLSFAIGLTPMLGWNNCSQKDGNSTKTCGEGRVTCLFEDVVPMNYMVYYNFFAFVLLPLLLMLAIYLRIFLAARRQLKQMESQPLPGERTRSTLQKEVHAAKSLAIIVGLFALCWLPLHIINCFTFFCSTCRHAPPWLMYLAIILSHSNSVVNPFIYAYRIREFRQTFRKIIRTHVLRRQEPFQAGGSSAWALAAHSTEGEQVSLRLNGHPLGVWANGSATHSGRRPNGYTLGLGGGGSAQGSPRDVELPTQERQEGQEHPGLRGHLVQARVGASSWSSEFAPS
Description: Brains from 200-500 g mixed sex Sprague-Dawley rats were purchased from Pel-Freez (Rogers, Ark.). Fresh brains from male Long-Evans hooded rats (Blue Spruce Farms, Altamont, N.Y.) gave essentially identical results. Brains were thawed and then kept on ice while the striata were dissected out. Striata were disrupted in 10 vol of ice-cold 50 mM Tris.HCl (pH 7.7 at 25° C., pH 8.26 at 5° C.) (Tris) for 30 seconds in a Polytron PT-10 (Brinkmann) at setting 5. The suspension was centrifuged at 50,000 xg for ten minutes, the supernatant discarded, the pellet resuspended in 10 vol ice-cold Tris as above, recentrifuged, resuspended at 1 g/5 ml, and stored in plastic vials at -70° C. (stable for at least six months). When needed, tissue was thawed at room temperature, disrupted in a Polytron, and kept on ice until used.
All incubations were for 60 minutes at 25° C. in 12×75 mm glass tubes containing 1 ml Tris with 5 mg original tissue weight of rat weight of rat striatal membranes, 4 nM [^3 H]-N-ethyl adenosine-5'-carboxamide ([^3 H]NECA), 50 nM N^6 -cyclopentyladenosine (to eliminate A1 receptor binding), 10 mM MgCl2, 0.1 units/ml of adenosine deaminase and 1% dimethylsulfoxide. N^6 -Cyclopentyladenosine was dissolved at 10 mM in 0.02N HCl and diluted in Tris. Stock solutions and dilutions of N^6 -cyclopentyladenosine could be stored at -20° C. for several months. Test compounds were dissolved at 10 mM in dimethylsulfoxide on the same day as the experiment, and diluted in dimethylsulfoxide to 100× the final incubation concentration. Control incubations received an equal volume (10 μl) of dimethylsulfoxide; the resulting concentration of dimethylsulfoxide had no effect on binding. [^3 H]NECA was diluted to 40 nM in Tris. The membrane suspension (5 mg/0.79 ml) contained sufficient MgCl2 and adenosine deaminase to give 10 mM and 0.1 units/ml, respectively, final concentration in the incubation. […]
Incubations were terminated by filtration through 2.4 cm GF/B filters under reduced pressure. […] Filters were put in scintillation vials, 8 ml of Formula 947 scintillation fluid added, and the vials left overnight, shaken, and counted in a liquid scintillation counter at 40% efficiency.
Nonspecific binding was defined as binding in the presence of 100 μM N^6 -cyclopentyladenosine, and specific binding was defined as total binding minus nonspecific binding. The IC50 was calculated by weighted nonlinear least squares curve-fitting to the mass-action equation. […]
Weighting factors were calculated under the assumption that the standard deviation was proportional to the predicted value of Y. Nonspecific binding was treated as a very large (infinite) concentration of drug in the computer analysis.

[1] = Mouse Activity and Screen Test Procedure (MAST): inhibition of spontaneous locomotion (actophotometer) and overall dose rating; type: in vivo, mouse (Swiss-Webster, male); settings: IP
Excerpt: (§1) The compounds of the invention are new chemical substances which are useful as pharmaceutical agents for the treatment of psychoses. The antipsychotic activity of representative compounds of the invention was established by the Mouse Activity and Screen Test Procedure (MAST) described below.
(§2) Nine unfasted Swiss-Webster male mice weighing 20-30 g are equally divided into three groups for each drug dose to be tested. That is, data for each dose level was generated by three separate groups of three mice each.
(§3) A minimum of three dose levels (10, 30, and 100 mg/kg) are tested for each drug. Treatments are administered intraperitoneally one hour prior to testing. All dosages are calculated as parent compound and given in volumes of 10 ml/kg. Compounds are dissolved or suspended in 0.2% Methocel. Control animals are injected with Methocel.
(§4) Testing: A two part testing procedure is started one hour postinjection. First, the screen test (ST) is performed (see Pharmac. Biochem. Behav. 6, 351-353, 1977). Briefly this test consists of placing mice on individual wire screens which are then rotated 180 degrees at the start of a 60 second observation period. The number of mice falling off the inverted screen is recorded.
Immediately following the screen test, the final phase of testing is initiated by placing each group of three mice in one actophotometer (Life Sciences, 22, 1067-1076, 1978). The actophotometer consists of a cylindrical chamber whose center is occupied by another cylinder which contains the illumination for six photocells located on the perimeter of the chamber. Six light-beam interruptions equal one count. Locomotor activity is recorded by computer at ten minute intervals for 60 minutes.
(§5) Data: The data obtained from the screen test are expressed as percent of mice falling off the screen. Data derived from locomotor activity of drug treated mice are compared to the activity of vehicle treated animals and are expressed as percent inhibition of spontaneous locomotion. All percentages reported for inhibition of locomotion (LI) are based upon data accumulated for one hour. Both phases of testing are graded: A=60-100%; C=31-59%; and N=0-30%. An overall dose rating is obtained by the following criteria:
(§6) LAD refers to the lowest dose at which an A rating is achieved. […] Utilizing this procedure, an overall dose rating of A was obtained for the noted compound at the indicated dose. The compounds are identified in the Examples.

[2] = Mouse Activity and Screen Test Procedure (MAST): screen test (mice falling off inverted screen); type: in vivo, mouse (Swiss-Webster, male); settings: IP
Excerpt: as §1, §2, §3, §4, §5, §6

[3] = Mouse Activity and Screen Test Procedure (MAST): inhibition of spontaneous locomotion (actophotometer) and overall dose rating; type: in vivo, mouse (Swiss-Webster, male); settings: PO
[4] = Mouse Activity and Screen Test Procedure (MAST): screen test (mice falling off inverted screen); type: in vivo, mouse (Swiss-Webster, male); settings: PO

IC50 (adenosine A1 receptor) | IC50 (adenosine A2 receptor) | Screen Test Failure ([2]; 3 mg/kg) | Screen Test Failure ([2]; 10 mg/kg) | Screen Test Failure ([2]; 30 mg/kg) | Screen Test Failure ([4]; 3 mg/kg) | Screen Test Failure ([4]; 10 mg/kg) | Screen Test Failure ([4]; 30 mg/kg) | SMILES | Inhibition of Mouse Locomotion Activity ([1]; 3 mg/kg) | Inhibition of Mouse Locomotion Activity ([1]; 10 mg/kg) | Inhibition of Mouse Locomotion Activity ([1]; 30 mg/kg) | Inhibition of Mouse Locomotion Activity ([3]; 3 mg/kg) | Inhibition of Mouse Locomotion Activity ([3]; 10 mg/kg) | Inhibition of Mouse Locomotion Activity ([3]; 30 mg/kg)
4.5 nM | 549 nM | 0% | 0% | 0% |  |  |  | OC[C@H]1O[C@@H](n2cnc3c(NCCc4csc5ccc(Cl)cc45)ncnc32)[C@H](O)[C@@H]1O [Example 3, N-[2-(5-chlorobenzo[b]thien-3-yl)ethyl]adenosine] | 27% | 54% | 86% |  |  | 
7.7 nM | 343 nM | 0% | 11% | 11% | 17% | 0% | 44% | COc1ccc2c(CCNc3ncnc4c3ncn4[C@@H]3O[C@H](CO)[C@@H](O)[C@H]3O)csc2c1 [Example 1, N-[2-(6-methoxybenzo[b]thien-3-yl)ethyl]adenosine] | 23% | 48% | 92% | 12% | 42% | 84%
12 nM | 303 nM | 0% | 11% | 0% |  |  |  | OC[C@H]1O[C@@H](n2cnc3c(NCCc4csc5ccccc45)ncnc32)[C@H](O)[C@@H]1O [Example 2, N-[2-(benzo[b]thien-3-yl)ethyl]adenosine] | 21% | 30% | 63% |  |  | 
4.3 nM | 413 nM | 0% | 0% | 0% |  |  |  | Cc1ccc2scc(CCNc3ncnc4c3ncn4[C@@H]3O[C@H](CO)[C@@H](O)[C@H]3O)c2c1 [Example 4, N-[2-(5-methylbenzo[b]thien-3-yl)ethyl]adenosine] | 48% | 63% | 89% |  |  | 
